Measurements reported in PMC8340127 (iScience, 2021).
Like-named read-outs stand apart in the source and are kept apart here. Residues, ends and D or L forms follow the SMILES beside them.

Key:
15N-Aβ40 [1] = biological target: T1, 15N-Aβ40 (Homo sapiens, UniProt P05067); assay: biochemical; assay type: binding
T1 construct: Uniformly isotopically ^15N -labelled Amyloid-β1-40 (Aβ40); purchased AlexoTech AB, Umeå, Sweden AB-100-05

neuroblastoma cells = details: cited from earlier work
Aβ40 [2] = biological target: T2, Aβ40 (Homo sapiens, UniProt P05067); assay type: biochemical
T2 construct: Recombinant Amyloid-β1-40 (Aβ40) wild type peptide; purchased AlexoTech AB, Umeå, Sweden AB-100-10
T2 sequence (P05067 672-711): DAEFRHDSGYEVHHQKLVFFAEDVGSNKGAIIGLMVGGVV

Aβ40 [3] = biological target: T2, Aβ40; assay type: biochemical; remark: listed apart in the source
[4] = pH 7.4
15N-Aβ40 [5] = biological target: T1, 15N-Aβ40; assay type: biochemical; details: pH 7.35
Aβ42 [6] = biological target: T3, Aβ42 (Homo sapiens, UniProt P05067); assay type: biochemical; details: pH 7.8
T3 construct: Recombinant Amyloid-β1-42 (Aβ42) wild type peptide; purchased rPeptide, Watkinsville, USA A-1163-2
T3 sequence (P05067 672-713): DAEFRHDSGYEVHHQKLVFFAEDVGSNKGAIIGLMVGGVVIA

Aβ42 [7] = biological target: T3, Aβ42; assay type: biochemical; details: pH 7.3
Aβ42 [8] = biological target: T3, Aβ42; assay type: binding; details: pH 8.3
Aβ42 [9] = biological target: T3, Aβ42; assay type: biochemical
[10] = assay type: biochemical; details: pH 7.4
Aβ42 [11] = biological target: T3, Aβ42; assay type: biochemical; details: pH 8
[12] = assay type: biochemical; details: pH 7.4; remark: listed apart in the source
Aβ42 [13] = biological target: T3, Aβ42; assay type: binding

T1 sequence (P05067 672-711): as the sequence (P05067 672-711) above

CC[C@H](C)[C@H](NC(=O)[C@H](CC(C)C)NC(=O)[C@H](CC(=O)O)NC(=O)[C@H](CCCCN)NC(=O)[C@@H](NC(=O)[C@H](CCCNC(=N)N)NC(=O)[C@H](CC(C)C)NC(=O)[C@@H](N)CCSC)[C@@H](C)O)C(=O)N[C@@H](Cc1c[nH]c2ccccc12)C(=O)N[C@H](C(=O)N[C@@H](CC(C)C)C(=O)N[C@@H](Cc1ccccc1)C(=O)N[C@@H](Cc1ccccc1)C(=O)N[C@@H](CC(C)C)C(=O)NCC(=O)N[C@H](C(=O)N[C@@H](C)C(=O)N[C@H](C(=O)N[C@@H](CO)C(=O)N[C@@H](CCCCN)C(=O)N[C@@H](CCCCN)C(=O)N[C@@H](CCCNC(=N)N)C(=O)N1CCC[C@H]1C(=O)N[C@@H](CCCCN)C(=O)N1CCC[C@H]1C(N)=O)C(C)C)[C@@H](C)O)[C@@H](C)O [NCAM-PrP] (H-MLRTKDLIWTLFFLGTAVSKKRPKP-NH2)
Kd (15N-Aβ40 [1]): ~160 µM
effect on Aβ-induced cytotoxicity in cells (neuroblastoma cells): attenuates Aβ-induced cytotoxicity in cells
toxicity (neuroblastoma cells): not toxic at the concentrations studied

Aβ40: Recombinant Amyloid-β1-40 (Aβ40) wild type peptide
secondary structure by FTIR (Aβ40 [2]): both random coil and β-sheet conformations
aggregation half-time τ½, Aβ40 alone + NaF (Aβ40 [3]): 2 h
aggregation half-time τ½, Aβ40 alone (Aβ40 [3]; pH 7.3): approximately 6 h

Aβ: Amyloid-β (Aβ) peptide, 40 or 42 residues long; in b38 15N-Aβ40
secondary structure in SDS micelles [4]: α-helical secondary structures
aggregation of Aβ40 alone (HSQC signal intensity) (15N-Aβ40 [5]): started to aggregate during the incubation

DAEFR5HDSGY10EVHHQ15KLVFF20AEDVG25SNKGA30IIGLM35VGGVV40IA [Aβ42, Recombinant Amyloid-β1-42 (Aβ42) wild type peptide]
effect of 10% pre-formed seeds on Aβ42 amyloid formation, no NCAM-PrP (Aβ42 [6]): the amyloid formation was enhanced
time at which normalized CD signals at 198 and 220 nm meet, Aβ42 alone (Aβ42 [7]): approximately one
β-sheet formation of Aβ42 alone (Aβ42 [7]): transitioned into a mostly β-sheet state within 4 h
oligomeric state of Aβ42, aqueous (Aβ42 [8]): mostly monomeric peptide with a rich population of small and heterogeneous oligomers
fibril diameter by AFM, Aβ42 alone (Aβ42 [9]): approximately 10 nm
calcein leakage by monomeric Aβ42 [10]: around 10%
aggregation half-time τ½, Aβ42 alone (Aβ42 [11]): about 4 h
aggregation half-time τ½, Aβ42 alone + NaF (Aβ42 [11]): approximately 2.5 h
calcein leakage by monomeric Aβ42 [12]: around 10%
share of tetramer in the Aβ42 oligomeric population (Aβ42 [13]): about 50%
